# pEC50: −log10 of the molar value. Where two headings read alike, the source gives them in different places.
# Legend:
# [1] = system: IL-23 (p19/p40); test: IL23-p19 ELISA, Dendritic, LPS (compound screening using DC cells); format: cell-based, Human; conditions: PBMC-derived DC cells, IFNγ primed, LPS 1 μg/ml, 18 hours, 10 pt, read-out: IL23-p19 ELISA, Dendritic, LPS, 10 pt, EC50
# How it was run: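 Human PBMC-derived dendritic cells (7 d GM-CSF 100 ng/ml + IL-4 20 ng/ml), primed 24 h with IFNγ 50 ng/ml, pre-incubated 1 h with compound, then stimulated 18 h with LPS 1 μg/ml. Supernatant IL-23 measured by p19-capture/p40-detection chemiluminescent ELISA; CellTiter Glo checks cytotoxicity.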
# [2] = system: IL-23p19; test: LPS induced IL23p19 in THP-1 cells (with IFNγ primed) assay; format: cell-based, Human; conditions: THP-1 cells, IFNγ primed, LPS 1 ug/mL, 18 hours, 10 pt, read-out: IL23-p19 ELISA, THP1-IFNy, LPS, 10 pt EC50
# How it was run: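 THP-1 cells primed ~18 h with IFNγ (50 ng/mL), pre-incubated 1 h with compound at 37 °C, then stimulated 18 h with LPS (1 ug/mL final). Supernatant IL-23p19 measured by sandwich ELISA with chemiluminescent read-out; EC50 from curve fitting. Toxicity checked on the remaining cells by Cell Titer Glo.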
pEC50 [1],"pEC50 ([2]; Homo sapiens, THP-1, 18 h)",pEC50 [2],"pEC50 ([1]; Homo sapiens, 18 h)",SMILES
6.46,6.96,–,–,"CCO[C@H]1C[C@@H](n2cc(NC(=O)c3csc(-c4cnn(COP(=O)(O)O)c4)n3)c(-c3ncccc3F)n2)C1 [II-163, (4-(4-((1-((cis)-3-ethoxycyclobutyl)-3-(3-fluoropyridin-2-yl)-1H-pyrazol-4-yl)carbamoyl)thiazol-2-yl)-1H-pyrazol-1-yl)methyl dihydrogen phosphate]"
6.04,–,6.96,–,"CCO[C@H]1C[C@@H](n2cc(NC(=O)c3csc(-c4cnn(COP(=O)(O)O)c4)n3)c(-c3ncccc3F)n2)C1 [II-164, (4-(4-((1-((cis)-3-ethoxycyclobutyl)-3-(3-fluoropyridin-2-yl)-1H-pyrazol-4-yl)carbamoyl)thiazol-2-yl)-1H-pyrazol-1-yl)methyl disodium phosphate]"
–,7.35,–,7.34,"O=C(Nc1cn([C@H]2C[C@@H](OCC(F)(F)F)C2)nc1-c1ncccc1F)c1csc(-c2cn[nH]c2)n1 [II-165, N-(3-(3-fluoropyridin-2-yl)-1-((cis)-3-(2,2,2-trifluoroethoxy)cyclobutyl)-1H-pyrazol-4-yl)-2-(1H-pyrazol-4-yl)thiazole-4-carboxamide]"
–,7.02,–,7.02,"O=C(Nc1cn([C@H]2C[C@H](OCC(F)(F)F)C2)nc1-c1ncccc1F)c1csc(-c2cn[nH]c2)n1 [II-167, N-(3-(3-fluoropyridin-2-yl)-1-((trans)-3-(2,2,2-trifluoroethoxy)cyclobutyl)-1H-pyrazol-4-yl)-2-(1H-pyrazol-4-yl)thiazole-4-carboxamide]"
–,7.38,–,6.39,"CCO[C@H]1CC[C@H](n2cc(NC(=O)c3csc(-c4cn[nH]c4)n3)c(-c3ncccc3F)n2)CC1 [II-169, N-(1-((trans)-4-ethoxycyclohexyl)-3-(3-fluoropyridin-2-yl)-1H-pyrazol-4-yl)-2-(1H-pyrazol-4-yl)thiazole-4-carboxamide]"
–,7.31,–,7.04,"O=C(Nc1cn([C@H]2C[C@@H](OCC(F)(F)F)C2)nc1-c1cccc(F)n1)c1csc(-c2cn[nH]c2)n1 [II-170, N-(3-(6-fluoropyridin-2-yl)-1-((cis)-3-(2,2,2-trifluoroethoxy)cyclobutyl)-1H-pyrazol-4-yl)-2-(1H-pyrazol-4-yl)thiazole-4-carboxamide]"
–,7.89,–,7.62,"O=C(Nc1cn([C@H]2C[C@@H](O)C2)nc1-c1cccc(F)n1)c1csc(-c2cn[nH]c2)n1 [II-172, N-(3-(6-fluoropyridin-2-yl)-1-((cis)-3-hydroxycyclobutyl)-1H-pyrazol-4-yl)-2-(1H-pyrazol-4-yl)thiazole-4-carboxamide]"
–,7.38,–,6.50,"CCO[C@H]1C[C@@H](n2cc(NC(=O)c3csc(-c4cnn(COP(=O)(O)O)c4)n3)c(-c3cccc(F)n3)n2)C1 [II-173, (4-(4-((1-((cis)-3-ethoxycyclobutyl)-3-(6-fluoropyridin-2-yl)-1H-pyrazol-4-yl)carbamoyl)thiazol-2-yl)-1H-pyrazol-1-yl)methyl dihydrogen phosphate]"
–,7.09,–,7.15,"CCO[C@H]1C[C@@H](n2cc(NC(=O)c3csc(-c4cn[nH]c4)n3)c(-c3nc(F)ccc3F)n2)C1 [II-174, N-(3-(3,6-difluoropyridin-2-yl)-1-((cis)-3-ethoxycyclobutyl)-1H-pyrazol-4-yl)-2-(1H-pyrazol-4-yl)thiazole-4-carboxamide]"
–,6.92,–,7.43,"CCO[C@H]1CC[C@H](n2cc(NC(=O)c3csc(-c4cn[nH]c4)n3)c(-c3nnco3)n2)CC1 [II-178, N-(1-((1r,4r)-4-ethoxycyclohexyl)-3-(1,3,4-oxadiazol-2-yl)-1H-pyrazol-4-yl)-2-(1H-pyrazol-4-yl)thiazole-4-carboxamide]"
–,7.90,–,7.13,"O=C(Nc1cn([C@H]2CC[C@H](NCC(F)F)CC2)nc1-c1ncccn1)c1csc(-c2cn[nH]c2)n1 [II-179, N-(1-((1r,4r)-4-((2,2-difluoroethyl)amino)cyclohexyl)-3-(pyrimidin-2-yl)-1H-pyrazol-4-yl)-2-(1H-pyrazol-4-yl)thiazole-4-carboxamide]"
–,7.10,–,6.58,"CCO[C@H]1CC[C@H](n2cc(NC(=O)c3csc(-c4cn[nH]c4)n3)c(-c3ncc(F)cc3F)n2)CC1 [II-180, N-(3-(3,5-difluoropyridin-2-yl)-1-((1r,4r)-4-ethoxycyclohexyl)-1H-pyrazol-4-yl)-2-(1H-pyrazol-4-yl)thiazole-4-carboxamide]"
–,7.40,–,6.87,"O=C(Nc1cn(C2CCOCC2)nc1-c1ccccn1)c1coc(-c2cn[nH]c2)n1 [III-2, 2-(1H-pyrazol-4-yl)-N-(3-(pyridin-2-yl)-1-(tetrahydro-2H-pyran-4-yl)-1H-pyrazol-4-yl)oxazole-4-carboxamide]"
–,6.61,–,6.77,"CCOCCn1cc(NC(=O)c2coc(-c3cn[nH]c3)n2)c(-c2ccccn2)n1 [III-3, N-(1-(2-ethoxyethyl)-3-(pyridin-2-yl)-1H-pyrazol-4-yl)-2-(1H-pyrazol-4-yl)oxazole-4-carboxamide]"
–,7.36,–,7.43,"CCO[C@H]1C[C@@H](n2cc(NC(=O)c3coc(-c4cn[nH]c4)n3)c(-c3ccccn3)n2)C1 [III-4, N-(1-((1s,3s)-3-ethoxycyclobutyl)-3-(pyridin-2-yl)-1H-pyrazol-4-yl)-2-(1H-pyrazol-4-yl)oxazole-4-carboxamide]"
–,6.57,–,7.15,"O=C(Nc1cn(C2CCC2)nc1-c1ccccn1)c1coc(-c2cn[nH]c2)n1 [III-5, N-(1-cyclobutyl-3-(pyridin-2-yl)-1H-pyrazol-4-yl)-2-(1H-pyrazol-4-yl)oxazole-4-carboxamide]"
–,6.62,–,6.66,"COCCOCCn1cc(NC(=O)c2coc(-c3cc[nH]n3)n2)c(-c2ccccn2)n1 [III-6, N-(1-(2-(2-methoxyethoxy)ethyl)-3-(pyridin-2-yl)-1H-pyrazol-4-yl)-2-(1H-pyrazol-3-yl)oxazole-4-carboxamide]"
–,7.07,–,6.35,"O=C(Nc1cn(CCOCC(F)(F)F)nc1-c1ccccn1)c1coc(-c2cc[nH]n2)n1 [III-7, 2-(1H-pyrazol-3-yl)-N-(3-(pyridin-2-yl)-1-(2-(2,2,2-trifluoroethoxy)ethyl)-1H-pyrazol-4-yl)oxazole-4-carboxamide]"
–,6.40,–,6.79,"O=C(Nc1cn(CCOCC(F)F)nc1-c1ccccn1)c1coc(-c2cn[nH]c2)n1 [III-8, N-(1-(2-(2,2-difluoroethoxy)ethyl)-3-(pyridin-2-yl)-1H-pyrazol-4-yl)-2-(1H-pyrazol-4-yl)oxazole-4-carboxamide]"
